Data set [1] can be described thus: SRB cytotoxicity assay, normal PDL fibroblasts. The data set is classed as cell-based. To be noted: normal periodontal ligament (PDL) fibroblasts, 72 h incubation, 0.1–200 µM range, read-out: Cytotoxicity (as of %Control) IC50 value PDL fibroblasts. As to the method:
(§1) The cancer cell lines were cultured in DMEM supplemented with 10% FBS (Bio Whittaker, Verviers, Belgium), HEPES Buffer (10 mM), gentamicin (50 µg/mL), L-glutamine (100 μg/mL), streptomycin ([…]), penicillin (100 µg/mL), and 4-(2-hydroxyethyl)-1-piperazineethanesulfonic acid (HEPES) Buffer (Sigma, St. Luis, MO, USA). The Sulforhodamine B used was obtained from Santa Cruz Biotechnology, Inc. in Texas, USA. […] Periodontal ligament fibroblasts (PDL) were utilized to assess specific cytotoxicity. Cancer cell lines that have survived offer several benefits. They provide a consistent and uninterrupted source of cells, so bypassing any ethical concerns related to the use of human tissue. Additionally, they are cost-effective. The cytotoxicity levels were assessed using the Sulforhodamine B (SRB) colorimetric assay, provided by Santa Cruz Biotechnology, Inc. in Texas, USA. The Spectro Scan 80D UV-VIS spectrophotometer, manufactured by Sedico Ltd. in Nicosia, Cyprus, was employed for this cytotoxicity screening. The cells were co-incubated with substances or a reference agent at various doses ranging from 5 to 200 μg/mL. […] The reduction in cell viability was analyzed by plotting Dose-response curves and expressing the data as a percentage of the control optical density. The IC50 values were obtained using regression analysis.
(In SRB staining, fixed cells bind dye roughly in proportion to their protein.)

A short description of data set [2]: DPPH free radical scavenger assay. To be noted: DPPH radical scavenging; n = 12. The text has this:
This approach relies on the reduction of the radicals, which causes a change in colour from oxidized purple to reduced yellow. Primarily, Diphenyl-2-picryl-hydrazyl (DPPH) is reduced in a solution of methanol (MeOH) when a chemical that donates hydrogen is present. This reduction is due to the creation of the non-radical form DPPH-H. The alteration in colour can be precisely assessed by employing a spectrophotometer within the wavelength range of 515–520 nm. Unlike other assays for radical scavenging, the DPPH radical is stable and yields consistent spectroscopic data. A 0.2 mM DPPH solution was diluted with MeOH and then combined with treatment compounds and ascorbic acid in a 1:1 concentration ratio using a 96-well plate. […] The solution was then incubated for one hour, isolated from light. Subsequently, the alteration in absorbance at a wavelength of 517 nm was quantified using a microplate reader manufactured by Bio-Tek Instrument in the United States. Ascorbic acid served as a strong and traditional benchmark for comparing the effectiveness of radical scavenging agents. The DPPH radical scavenging activity inhibition was calculated using the following equation, where A denotes photometric absorbance: The formula to calculate the percentage difference between a control and a sample is: (A control – A sample)/ A control x 100% [71, 72].
(In general: Loss of DPPH colour is used to gauge radical scavenging.)

In data set [3] the test system is Human PC3 prostate cancer cell line. As to the kind of experiment: SRB cytotoxicity assay, PC3. It is filed as cell-based. To be noted: 72 h incubation, n = 12, read-out: Cytotoxicity (as of %Control) IC50 value PC3 prostate malignancy. As to the method: as §1
Data set [4] deals with A549 lung cancer cell line. As to the kind of experiment: SRB cytotoxicity assay, A549. It is filed as cell-based. To be noted: Homo sapiens, 72 h incubation, n = 12, read-out: Cytotoxicity (as of %Control) IC50 value A549 lung malignancy. As to the method:
as §1

The test system of data set [5] is SW620 colorectal cancer cell line. The data set is described as follows: SRB cytotoxicity assay, SW620. The data set is classed as cell-based. To be noted: Homo sapiens, SW-620, 72 h incubation, n = 12, read-out: Cytotoxicity (as of %Control) IC50 value SW620. As to the method:
as §1

Data set [6] deals with LPS-primed RAW 264.7 murine macrophages (nitrite / iNOS). As to the kind of experiment: Anti-inflammatory (nitrite) determination in LPS-primed macrophages. The data set is classed as cell-based. To be noted: Mus musculus, read-out: iNOS- IC50 value. How it is done:
The RAW 264.7 mouse macrophage cell line (ATCC® TIB-71) was cultivated in high glucose DMEM with 10% foetal bovine serum (FBS), 100 U/mL penicillin, 100 μg/mL streptomycin, and 100 μg/mL L-glutamate. The cells were incubated at 37°C in a humidified environment with 95% air and 5% CO2. Confluent macrophages (2 x 10^5/well) were cultured with lipopolysaccharide (LPS; 20 μg/mL; Sigma, St. Luis, MO, USA) and indomethacin (25–200 μg/mL) as the positive control, along with various concentrations (5–200 μg/mL) of treatment compounds. The cells were incubated for 24 hours. 100 μL of Griess reagent were combined with 100 μL portions of cell culture medium and left to incubate at room temperature for 10 minutes. The absorbance at a wavelength of 550 nm was measured using a microplate reader, namely the Spectro Scan 80D UV-VIS spectrophotometer manufactured by Sedico Ltd. in Nicosia, Cyprus. The nitrite concentration was assessed by comparing it to a standard curve of sodium nitrite. A cytotoxicity protocol using SRB was conducted to assess the impact of the test substances under study on RAW 264.7 viability.

The subject of data set [7] is cancer cell lines (panel). As to the kind of experiment: SRB cytotoxicity assay, ranges stated over several cancer cell lines. To be noted: Homo sapiens. It is filed as cell-based. As to the method:
as §1

The mark [8] stands for this setting: RAW264.7, LPS-primed RAW 264.7, nitrite by Griess, 24 h, n = 12.

Read-outs that look alike come from different tables or passages of the source.

As to `C[C@]12CC[C@@H]3c4ccc(O)c(O)c4CC[C@H]3[C@@H]1CC[C@@H]2O` [4-hydroxy-estradiol], the IC50 at 72 h in data set [1] was above 200 µM. Moreover, the IC50 in data set [2] came out at 506 ± 102 µM; in data set [3] it was 82.2 ± 8.56 µM; in data set [4] it was 15.2 ± 1.34 µM; in data set [5], 142 ± 16.5 µM; in data set [6] (setting [8]), 0.25 ± 0.04 µM.
Regarding `O=c1cc(O)cc(/C=C/c2ccc(O)c(O)c2)o1` [Hispidin], in data set [1], the IC50 at 72 h was above 200 µM. Also, the IC50 in data set [2] stood at 26.3 ± 0.65 µM; in data set [3], 139 ± 13.6 µM; in data set [4], 26 ± 5.22 µM; in data set [5], 34.3 ± 6.52 µM; in data set [6] (setting [8]), 3.47 ± 0.49 µM.
For `O=C1c2ccc(O)c(O)c2C(=O)c2c(O)ccc(O)c21` [Quinalizarin], the IC50 at 72 h in data set [1] was above 200 µM. In addition, the IC50 in data set [2] was 580 ± 26.5 µM; in data set [3] it was 143.1 ± 0.18 µM; in data set [4] it was 7.9 ± 0.71 µM; in data set [5], 40.7 ± 2.21 µM; in data set [6] (setting [8]), 1.85 ± 0.34 µM.
Regarding `CC(C)=CC[C@@H](O)C1=CC(=O)c2c(O)ccc(O)c2C1=O` [Shikonin], in data set [1], the IC50 at 72 h was above 200 µM. For the same compound, the IC50 in data set [2] amounted to 34.4 ± 5.04 µM; in data set [3] it was 176.2 ± 1.25 µM; in data set [4], 54 ± 5.8 µM; in data set [5], 60.3 ± 2.07 µM; in data set [6] (RAW264.7, 24 h), 0.27 ± 0.05 µM.
Regarding `Cc1ccc(C(=O)c2cc(O)c(O)c([N+](=O)[O-])c2)cc1` [Tolcapone, reference compound], the IC50 at 72 h in data set [1] is above 200 µM. Moreover, the IC50 in data set [2] worked out at 92.1 ± 2.4 µM; in data set [3], 257 ± 37.1 µM; in data set [4], 62 ± 2.21 µM; in data set [5], 105 ± 8.35 µM; in data set [6] (setting [8]), 1.19 ± 0.17 µM.
In the case of `CC(/C=C/C(=O)NO)=C\[C@@H](C)C(=O)c1ccc(N(C)C)cc1` [Trichostatin A, reference compound], the IC50 at 72 h in data set [1] was above 200 µM. The IC50 in data set [2] was 99.3 ± 15.5 µM; in data set [3], 47.5 ± 3.96 µM; in data set [4], 2 ± 0.21 µM; in data set [7] (Pancreatic cancer cell, after 72 hours of incubation, read-out: IC50, colorectal and pancreatic cancer cells), at most 27 µM; in data set [7] (A375, A549, PC3, MCF7, T47D, HeLa, read-out: IC50 range, decreases in viability in other cancer cell cultures), 1.4 to 14.7 µM; in data set [7] (CACO2, HCT116, SW620, HT29, read-out: IC50 range, anti-proliferation in colorectal cancer cells) it was 14 to 27 µM. The IC50 in data set [7] (Table 3 cell lines, read-out: IC50, skin melanoma, lung carcinoma, mammary and cervix adenocarcinomas) was below 10 µM; in data set [5], 19.5 µM; in data set [6] (setting [8]), 1.69 ± 0.12 µM.

Values taken from article PMC12527173, “Cytotoxic, anti-inflammatory, antioxidant, and anti-glyoxalase-I evaluation of chelating substances: In silico and in vitro study” (PLOS One, 2025).
